In one series the test system is Myzus persicae. Briefly: Myzus persicae oral test. The format is in vivo. Particulars: application rate 20 ppm, oral uptake through parafilm, after 5 days. As to the method: Myzus persicae—Oral Test Solvent: 100 parts by weight of acetone
To produce an appropriate active ingredient formulation, 1 part by weight of active ingredient is dissolved with the stated parts by weight of solvent and made up with water until the desired concentration is attained.
50 μl of the active ingredient formulation are transferred into microtitre plates and made up to a final volume of 200 μl with 150 μl of IPL41 insect medium (33%+15% sugar). Subsequently, the plates are sealed with parafilm, which a mixed population of green peach aphids (Myzus persicae) within a second microtitre plate is able to puncture and imbibe the solution through it.
After 5 days, the efficacy in % is determined. 100% means that all the aphids have been killed; 0% means that no aphids have been killed.

Series [1] can be described thus: log P by HPLC on reversed-phase column (EEC directive 79/831 Annex V.A8). The format is physicochemical. Particulars: for log p: HPLC on reversed-phase column (footnote a); for log p a): HPLC on reversed-phase column. As to the method: a) The determination of the [M+H]^+ by LC-MS in the acidic range was effected at pH 2.7, with acetonitrile (containing 0.1% formic acid) and water as eluents; linear gradient from 10% acetonitrile to 95% acetonitrile, instrument: Agilent 1100 LC system, Agilent MSD system, HTS PAL.
The log P values reported in the tables and preparation examples above were determined in accordance with EEC directive 79/831 Annex V.A8 by HPLC (High Performance Liquid Chromatography) using a reversed-phase column (C18). Temperature 43° C.

Molecule `COCC(=O)c1c([O-])n(Cc2cncc(Cl)c2)c2cccc[n+]12` [Example I-1-109] yielded an efficacy in the series on Myzus persicae of 100%. The log p in series [1] came out at 1.15.

Regarding `O=C(NC1CC1)c1c([O-])n(Cc2ccc(Cl)nc2)c2ccc(F)c[n+]12` [Example I-1-170], in the series with Myzus persicae, the efficacy is given as 100%. The log p in series [1] amounted to 1.79. The matching figures for `COC(=O)c1c([O-])n(Cc2cnc(Cl)s2)c2cccc(Cl)[n+]12` [Example I-1-121]: 100% and 1.32. `Cc1ccc[n+]2c(C(=O)COC3CCCCC3)c([O-])n(Cc3cnc(Cl)s3)c12` [Example I-1-294]: the efficacy in the series with Myzus persicae is 90%. In series [1], the “log p a)” value is 2.77. The matching figures for `CC(c1ccc(Cl)nc1)n1c([O-])c(C(=O)NCC(F)(F)F)[n+]2ccccc12` (stereo not drawn) [Example I-1-241]: 100% and 2.2. The matching figures for `O=C(Nc1ncccc1F)c1c([O-])n(Cc2ccc(Cl)nc2)c2cccc[n+]12` [Example I-1-317]: 100% and 1.49. As for `O=C(Cn1cccn1)c1c([O-])n(Cc2cncnc2)c2cccc[n+]12` [Example I-1-066], the efficacy in the series on Myzus persicae amounted to 90%. Further, the log p in series [1] is reported as 0.56.

For the molecule `COC(=O)c1c([O-])n(C(C)c2ccc(Cl)nc2)c2cccc[n+]12` (stereo not drawn) [Example I-1-198], the efficacy in the series on Myzus persicae amounted to 100%. Besides, in series [1], the “log p a)” value was determined as 1.32. `COC(=O)c1c([O-])n(Cc2ccc(Cl)nc2)c2c(C)ccc[n+]12` [Example I-1-160] came in with an efficacy in the series with Myzus persicae of 100%. Moreover, the log p in series [1] is recorded as 1.39. For `O=C(COc1ccccn1)c1c([O-])n(Cc2cnc(Cl)s2)c2cccc[n+]12` [Example I-1-088] the same measures were 100% and 1.32. The matching figures for `O=C(NC1CC1)c1c([O-])n(Cc2cncc(Cl)c2)c2cccc[n+]12` [Example I-1-195]: 90% and 1.52.

Regarding `Cc1ncc(Cn2c([O-])c(C(=O)NC3CC3)[n+]3cccc(C)c23)s1` [Example I-1-223], the efficacy with Myzus persicae was 100%. For the same molecule, the “log p a)” value in series [1] is 1.45. On to `O=C(COCc1ccc(F)cc1)c1c([O-])n(Cc2cnc(Cl)s2)c2cccc[n+]12` [Example I-1-055], for which the efficacy in the series on Myzus persicae came out at 100%. In addition, in series [1], the log p stood at 2.41. Regarding `CNC(=O)c1c([O-])n(Cc2cnc(C)cn2)c2cccc[n+]12` [Example I-1-245], in the series on Myzus persicae, the efficacy turned out to be 90%. For the same molecule, the “log p a)” value in series [1] came out at 0.76.

With `CC(c1ccc(Cl)nc1)n1c([O-])c(C(=O)NCC2CC2)[n+]2ccccc12` (stereo not drawn) [Example I-1-250], the efficacy in the series with Myzus persicae is listed as 100%. In addition, the “log p a)” value in series [1] amounted to 2.12. For `Cc1ccc[n+]2c(C(=O)NC3CC3)c([O-])n(C(C)c3ccc(Cl)nc3)c12` (racemic) [Example I-1-259] the same measures were 90% and 1.96. In the series on Myzus persicae, `CCOCC(=O)c1c([O-])n(Cc2cncc(Cl)c2)c2cccc[n+]12` [Example I-1-177] registered an efficacy of 100%. Besides, the log p in series [1] is listed as 1.37.

Turning to `O=C(CCl)c1c([O-])n(Cc2cnc(Cl)s2)c2cccc[n+]12` [Example I-1-209], in the series on Myzus persicae, the efficacy was 100%. Besides, the “log p a)” value in series [1] is reported as 1.24.

Turning to `N#Cc1ccc[n+]2c(C(=O)CCl)c([O-])n(Cc3ccc(Cl)nc3)c12` [Example I-1-172], in the series on Myzus persicae, the efficacy amounted to 90%. The same molecule registered a log p in series [1] of 1.78. In turn, `CCNC(=O)c1c([O-])n(C(C)c2ccc(Cl)nc2)c2cccc[n+]12` (stereo not drawn) [Example I-1-228] yielded an efficacy in the series with Myzus persicae of 100%. In series [1], the “log p a)” value is 1.72. On to `COCC(=O)c1c([O-])n(Cc2cnc(Cl)s2)c2ccc(Cl)c[n+]12` [Example I-1-118], for which the efficacy in the series on Myzus persicae was 100%. For the same molecule, the log p in series [1] is reported as 1.69. On to `O=C(Cn1ccc(C(F)(F)F)n1)c1c([O-])n(Cc2cnc(Cl)s2)c2cccc[n+]12` [Example I-1-057], for which, in the series with Myzus persicae, the efficacy is 90%. Also, the log p in series [1] is recorded as 2.44.

The molecule `O=C(C[S+]([O-])Cc1ccccc1)c1c([O-])n(Cc2cnc(Cl)s2)c2cccc[n+]12` (stereo not drawn) [Example I-1-035] came in with an efficacy in the series on Myzus persicae of 100%. In series [1], this molecule returned a log p of 1.72. For `Cc1ccc[n+]2c(C(=O)NC3CCCCC3)c([O-])n(Cc3ccc(Cl)nc3)c12` [Example I-1-253], in series [1], the “log p a)” value is listed as 2.72. The molecule `O=C(CCl)c1c([O-])n(Cc2ccc(C(F)(F)F)nc2)c2cccc[n+]12` [Example I-1-163] displayed a log p in series [1] of 1.9. The same measure, in the same setting: in the case of `COC(=O)c1c([O-])n(Cc2ccc(Cl)nc2)c2c(Cl)ccc[n+]12` [Example I-1-130] it was 1.56.

`O=C(Nc1cc(Cl)cc(Cl)c1)c1c([O-])n(Cc2ccc(Cl)nc2)c2cccc[n+]12` [Example I-1-295]: the “log p a)” value in series [1] is on record as 4.1. In series [1], `CCNC(=O)c1c([O-])n(Cc2cnc(Cl)s2)c2cccc[n+]12` [Example I-1-134] gave a log p of 1.58.

As to `O=C(Nc1ccc(Cl)cc1)c1c([O-])n(Cc2cnc(Cl)s2)c2cccc[n+]12` [Example I-1-150], the log p in series [1] is listed as 3.39. Take `COC(=O)c1c([O-])n(Cc2cnc(Cl)cn2)c2c(C)ccc[n+]12` [Example I-1-281]: the “log p a)” value in series [1] was 1.47. Turning to `CNC(=O)c1ccn(CC(=O)c2c([O-])n(Cc3cnc(Cl)s3)c3cccc[n+]23)n1` [Example I-1-048], the log p in series [1] is reported as 1.27.

`O=C(COc1ccc(Cl)cc1)c1c([O-])n(Cc2cnc(Cl)s2)c2cccc[n+]12` [Example I-1-074] displayed a log p in series [1] of 2.84. In the case of `COC(=O)c1c([O-])n(Cc2ccc(Cl)nc2)c2c(SC)ccc[n+]12` [Example I-1-194], the log p in series [1] is 1.64. Consider `Cc1cccnc1NC(=O)c1c([O-])n(Cc2cnc(Cl)s2)c2cccc[n+]12` [Example I-1-337], for which the “log p a)” value in series [1] was found to be 0.91. As for `Cc1ccc[n+]2c(C(=O)NCC3CCCCC3)c([O-])n(Cc3ccc(Cl)nc3)c12` [Example I-1-255], in series [1], the “log p a)” value is given as 3.21. Molecule `O=C(NC1CC1)c1c([O-])n(Cc2ccc(Cl)nc2)c2c(F)cc(F)c[n+]12` [Example I-1-197] gave a log p in series [1] of 1.99. In the case of `Cc1ccc[n+]2c(C(=O)Nc3ccccn3)c([O-])n(Cc3ccc(Cl)nc3)c12` [Example I-1-264], in series [1], the “log p a)” value turned out to be 1.68. As for `Cc1cccc(NC(=O)c2c([O-])n(Cc3ccc(Cl)nc3)c3cccc[n+]23)c1` [Example I-1-300], in series [1], the “log p a)” value is 1.41. On to `O=C(Nc1cnccc1Cl)c1c([O-])n(Cc2cnc(Cl)s2)c2cccc[n+]12` [Example I-1-334], for which, in series [1], the “log p a)” value is given as 1.81. In the case of `O=C(Nc1ncns1)c1c([O-])n(Cc2cnc(Cl)s2)c2cccc[n+]12` [Example I-1-338], the “log p a)” value in series [1] amounted to 1.98. In the case of `COC(=O)c1c([O-])n(Cc2ccc(Cl)nc2)c2c(OC(F)(F)F)ccc[n+]12` [Example I-1-189], the log p in series [1] is 1.84. With `N#CC1(NC(=O)c2c([O-])n(Cc3cnc(Cl)s3)c3cccc[n+]23)CC1` [Example I-1-270], the “log p a)” value in series [1] was determined as 1.58. As to `O=C(c1c([O-])n(Cc2cnc(Cl)s2)c2cccc[n+]12)N1CCCC1` [Example I-1-273], the “log p a)” value in series [1] stood at 1.52.
